Experiments:
[1] = tested on: M82 and rop9 mutant seedlings; assay: Primary root elongation assay; assay type: in vivo, Tomato (S. lycopersicum); settings: 1 or 5 μM ABA, 48 h
Procedure: Seven-day-old M82 and rop9 mutant seedlings were transferred to 0.5×MS+1% agar plates (without sucrose) supplemented with 0.1% ethanol (mock) or 1 or 5 μM ABA in 0.1% ethanol, and root lengths were marked. Root elongation was measured after 48 h.

[2] = tested on: stomata of M82 and rop9 mutant cotyledons; assay: Measurements of stomata aperture (width/length) in excised cotyledons; assay type: cell-based, Tomato (S. lycopersicum)
Procedure: […] assays were carried out as previously described (Puli, M. R. et al., J Exp Bot 63, 1349-1356, 2012). with the following modifications. Cotyledons were excised from M82 or rop9 mutants (10-15 days after sowing in soil) and were transferred immediately to stomatal opening buffer (10 mM MES-KOH, pH 7.0, 50 mM KCl) with or without ABA and treated for 3 h under light (110 to 120 μE m^−2 s^−1). Mock-treated controls were treated with 0.1% vol/vol ethanol. After 3 h, the abaxial epidermis of cotyledons was affixed to a glass slide with Telesis 5 silicone adhesive (Premiere Products) and bright-field images were taken with a Zeiss-LSM 780 NLO confocal microscope. For each biological replicate, width and length of 30 to 40 stomatal apertures were measured using Image J.

[3] = tested on: P5CS1 and RAB18 expression; assay: QPCR of ABA-responsive genes; assay type: cell-based, Tomato (S. lycopersicum); settings: M82, rop9-1 and rop9-4 cotyledons, 50 μM ABA
Procedure: For expression of ABA induced genes, total RNA was extracted from mock-treated or ABA-treated cotyledons or from 2- to 3-week-old soil-grown plants using the RNeasy Plant Mini Kit (Qiagen). cDNAs were prepared using the High-capacity cDNA Reverse Transcription Kit (Applied Biosystems). Oligonucleotide primers for tubulin, P5CS1, and RAB18 were identical to those used by Nir et al. (2017, ibid). Expression was normalized to tubulin. Gene expression of the M82 mock-treated samples was set to 1, and then remaining samples were calculated proportionately. Data are the means (±SE) of three independent biological replicates.

[4] = tested on: ROS levels in guard cells; assay: ROS measurements in guard cells (H2DCF fluorescence); assay type: cell-based, Tomato (S. lycopersicum)
Procedure: Reactive oxygen species (ROS) levels in guard cells were monitored using a fluorescence-based assay with 2′,7′-dichlorofluorescien diacetate (H2DCF-DA). Abaxial epidermises of cotyledons were mounted on microscope slides with medical adhesive Telesis V and loaded with stomatal opening buffer with 50 μM H2DCF-DA for 30 min. Excess H2DCF-DA was removed by washing with water, and samples were loaded with 0.1% ethanol (mock) or 10 μM ABA in opening buffer. After 15 min, fluorescence images were collected using a Zeiss-LSM 780 NLO confocal microscope. Fluorescence measured from about thirty stomata of each biological replicate was determined using Image J.

M82 seeds = assay: Seed germination assay on ABA-supplemented medium; assay type: in vivo, Tomato (S. lycopersicum); settings: 5 μM ABA, seven days
Procedure: Seeds of M82 and rop9 mutant plants (50 seeds per genotype) were surface sterilized for 2 min in ethanol followed by 20 min in 3% sodium hypochlorite, washed with excess of water (˜100 ml) and sown on 0.5×MS+1% agar plates (without sucrose) supplemented with 0.1% ethanol (mock) or 1 or 5 μM ABA (in 0.1% ethanol). Seeds were kept at 4° C. for 48 h for […] and moved to 25° C. in the dark for germination. The percentage of seeds germinated were determined after seven days.

[5] = tested on: ROP activity in guard cells; assay: Distribution of GFP-ICR1ΔN ROP activity probe in guard cells; assay type: cell-based; settings: Arabidopsis guard cells, 10 μM ABA, one hour
Procedure: Expression of GFP-ICR1ΔN was induced in 7-days old Arabidopsis seedlings with 5 μM β-estradiol dissolved in 99.5% DMSO. After 24 h of induction plants were treated with control (0.5× Murashige Skoog (MS) medium supplemented with 0.1% ETOH (control) or with 10 μM ABA dissolved in 0.1% ETOH. Analysis of GFP-ICR1ΔN distribution was carried out 1 h after treatments with control or ABA supplemented media using Zeiss LSM 780-NLO confocal microscope by excitation at 488 nm and emission spectrum at 501-546 nm using 40× and 63× water objectives. Image analyses were performed with ZEN 2012 Digital Imaging and Image J.
To follow the regulation of ROP activity in guard cells a fluorescent probe which is specifically expressed in guard cells was generated. The probe consists GFP fused to the […] C-terminal residues of ROP effector ICR1 (between residues 171-344) and was designated GFP-ICRΔN. […] To prevent possible steric hindrance of the ICRΔN moiety by GFP, a flexible linker consisting of 3 repeats of (Gly)4Ser (3×GGGGS) sequence were cloned between the ICRΔN and the GFP moieties. To prevent negative effects that could occur due to long-term expression of a ROP effector, the expression of the probe was induced by estradiol under regulation of the ROP11 promoter. […] The distribution of the probe between the membrane and cytoplasm reflected the degree of ROP activation. […]

Row | Structure (SMILES) | root elongation [1] | stomata aperture (width/length) ([2]; M82, rop9-1 and rop9-4 cells, 10 μM ABA (positive control)) | stomata aperture (width/length) ([2]; M82 cotyledons, 1 or 10 μM ABA, 3 h under light) | expression of P5CS1 and RAB18 [3] | H2DCF signal ([4]; M82 guard cells, 10 μM ABA, 15 min) | H2DCF signal ([4]; rop9-1 and rop9-4 guard cells, 10 μM ABA, 15 min) | seed germination (M82 seeds) | distribution of the probe between plasma membrane and cytoplasm [5] | stomata aperture (width/length) ([2]; M82 stomata, 5 μM DPI) | stomata aperture (width/length) ([2]; rop9-1 and rop9-4 stomata, 5 μM DPI) | H2DCF signal ([4]; rop9-1 and rop9-4 guard cells treated with ABA, 5 μM DPI)
1 | CC1=CC(=O)CC(C)(C)[C@@]1(O)/C=C/C(C)=C\C(=O)O [ABA, Abscisic acid] | inhibited to a similar extent in M82 and the rop9 mutants | expected closing of stomata were observed | induced stomata closure | induced to a similar extent by ABA in both wild-type and mutant leaves | induced significant enhancement | significantly reduced the signal | significantly inhibited | significant shift of the probe from the plasma membrane to the cytoplasm | – | – | –
2 | c1ccc2c(c1)[I+]c1ccccc1-2 [DPI, Diphenyleneiodonium chloride] | – | – | – | – | – | – | – | – | had no effect | induced opening | decreased the H2DCF signal

Source: patent US12270041B2, “ROP—deficient plants having high water use efficiency” (RAMOT AT TEL-AVIV UNIVERSITY LTD., priority 2019, dated 2025)
